According to patent US11779559B2, “Compositions for treating fungal and bacterial biofilms and methods of using the same” (priority 2017, dated 2023):
Like-named read-outs stand apart in the source and are kept apart here.

Key:
[1] = tested on: S. aureus; test: Disruption biofilm assay, bacterial; type: cell-based, Staphylococcus aureus; settings: for activation at 1 % / inhibition at 1 %: Staphylococcus aureus; for activation at 1 %: read-out: Promote B Biofilm; for inhibition at 1 %: 24 h, read-out: Reduce B Biofilm
Method: (§1) Two types of biofilm assays were performed: a sustained inhibition assay and a disruption assay. The sustained inhibition assay assesses the compound's ability to prevent biofilm development throughout all stages of biofilm formation, while the disruption assay assesses the compound's ability to break up an existing mature biofilm. These assays are described in detail in the following article: Lohse, M. B., Gulati, M., Valle Arevalo, A., Fishburn, A., Johnson, A. D., and Nobile, C. […] Antimicrobial Agents and Chemotherapy 61: e02749-16.
(§2) All bacterial biofilm solutions were prepared in Trypic Soy Broth (TSB), supplemented with 1% glucose (henceforth referred to as TSB-G). All subsequent procedures were performed in a manner that maintained sterility. A solution of each amino acid to be tested was prepared in weight to volume concentrations ranging from 0.1-5.0%. Amino acids were also tested in combinations. Compound solutions were homogenized with gentle agitation in the dark (4° C., 24 hours) before use.
(§3) Bacterial strains were streaked on Blood Agar plates (5% sheep blood in Tryptic Soy Agar) and incubated at 37° C. for 24 hours. A single colony from each strain to be tested was inoculated in a TSB broth and grown for 12 hours, at 37° C. with shaking (225 rpm). For the bacterial biofilm inhibition assays, 1 μL of saturated overnight cell culture was added to either 80 μL of TSB-G, or TSB-G supplemented with the amino acid compound solution to be tested, in a 384-well plate. The cells were allowed to adhere to the plate for 60 minutes at 37° C. without shaking. The media was carefully aspirated and 80 μL of TSB-G, or TSB-G supplemented with the amino acid compound solution was added to the plate. The plate was further incubated for 24 hours at 37° C. without shaking. Media was carefully aspirated and the biofilm was measured by optical density at 600 nm. Eight or twelve replicates were performed for each tested condition and the reported values are normalized to the control (TSB-G media only). For the bacterial biofilm disruption assays, 80 μL of TSB-G was added to the plate, along with 1 μL of overnight cell culture. The cells were allowed to adhere to the plate for 60 minutes at 37° C. with no shaking. The media was carefully aspirated and 80 μL of TSB-G was added to the plate. The plate was further incubated for 24 hours at 37° C. with no shaking. Media was carefully aspirated from the mature biofilm and 80 μL of TSB-G, or TSB-G supplemented with the amino acid to be tested, was gently added to the plate. The plate was further incubated for 24 hours at 37° C. without shaking. Media was aspirated and the biofilm was measured by optical density at 600 nm. Twelve replicates were performed for each tested condition and the reported values are normalized to the control (TSB-G media only).

[2] = tested on: S. aureus; test: Sustained inhibition biofilm assay, bacterial; type: cell-based, Staphylococcus aureus; settings: for activation at 1 %: Staphylococcus aureus, read-out: Promote B Biofilm
Method: as §1, §2, §3

[3] = tested on: bacterial biofilms; test: Biofilm assays (sustained inhibition and/or disruption), bacterial biofilms; type: cell-based; settings: in at least one of the two biofilm assays; for Anti-biofilm effect against bacterial biofilms (reduction): administered individually at about 0.1 to about 5.0% weight to volume
Method: Two types of biofilm assays were performed: a sustained inhibition assay and a disruption assay. The sustained inhibition assay assesses the compound's ability to prevent biofilm development throughout all stages of biofilm formation, while the disruption assay assesses the compound's ability to break up an existing mature biofilm. These assays are described in detail in the following article: Lohse, M. B., Gulati, M., Valle Arevalo, A., Fishburn, A., Johnson, A. D., and Nobile, C. J. (2017) Assessment and optimizations of Candida albicans in vitro biofilm assays. Antimicrobial Agents and Chemotherapy 61: e02749-16.
as §2, with “For fungal biofilm assays, all solutions were prepared in RPMI 1640 medium. All bacterial” for “All bacterial”
All biofilm assays were performed using 384-well non-tissue culture treated polystyrene plates. The fungal species tested are as follows: Candida albicans, Candida guilhermondii, Candida parapsilosis, Candida glabrata, Candida tropicalis, Candida dubliniensis, and Candida auris. The bacterial species tested are as follows: Staphylococcus aureus (standard wild type and methicillin-resistant strain USA300), Escherichia coli, Pseudomonas aeruginosa and Staphylococcus epidermidis.
as §3

[4] = disruption assay, S. aureus, 1% amino acid (unless specifically noted), p≤0.001
[5] = sustained inhibition assay, S. aureus, 1% amino acid (unless specifically noted), p≤0.001

| Structure (SMILES) | activation at 1 % [1, 4] [%] | activation at 1 % [2, 5] [%] | Effect on bacterial biofilm growth [3] | other results |
| --- | --- | --- | --- | --- |
| N[C@@H](CO)C(=O)O [Serine, L-serine] | 10 to 30 | 10 to 30 | support (improve) bacterial biofilm growth | – |
| O=C(O)[C@@H]1C[C@@H](O)CN1 [Hydroxyproline, Trans-4-hydroxy-L-proline] | – | – | – | inhibition at 1 % [1]: 10 to 30%; Reduce B Biofilm [2, 5]: ● (a single dot [ie. •] signifies minor effect (from about 10 to about 30% change)); Anti-biofilm effect against bacterial biofilms (reduction) [3]: less than twofold |
| NC(CCCC(=O)O)C(=O)O (stereo not shown) [2 Aminoadipic Acid, 2-aminoadipic acid] | – | – | – | inhibition at 1 % [1, 4]: 10 to 30%; Reduce B Biofilm [2, 5]: ● (a single dot [ie. •] signifies minor effect (from about 10 to about 30% change)); Anti-biofilm effect against bacterial biofilms (reduction) [3]: less than twofold |
| N[C@@H](Cc1ccccc1)C(=O)O [Phenylalanine, L-phenylalanine] | 10 to 30 | 10 to 30 | support (improve) bacterial biofilm growth | – |
| NCCS(=O)(=O)O [Taurine, L-taurine] | 10 to 30 | 10 to 30 | support (improve) bacterial biofilm growth | – |
| C[C@@H](O)[C@H](N)C(=O)O [Threonine, L-threonine] | – | 10 to 30 | support (improve) bacterial biofilm growth | – |
| CC(C)C[C@H](N)C(=O)O [Leucine, L-leucine] | 10 to 30 | 10 to 30 | support (improve) bacterial biofilm growth | – |
| NC(=O)NCCC[C@H](N)C(=O)O [Citrulline, L-citrulline] | – | – | support (improve) bacterial biofilm growth | activation at 1 % [1]: 10 to 30%; activation at 1 % [2]: 10 to 30% |
| NCCC[C@H](N)C(=O)O [Ornithine, L-ornithine] | 10 to 30 | 10 to 30 | support (improve) bacterial biofilm growth | – |
| NCC(=O)O [Glycine, L-glycine] | 10 to 30 | 10 to 30 | support (improve) bacterial biofilm growth | – |
| N=C(N)NCCC[C@H](N)C(=O)O [Arginine, L-arginine] | – | – | support (improve) bacterial biofilm growth | activation at 1 % [1]: 10 to 30%; activation at 1 % [2]: 10 to 30% |
| CC[C@H](C)[C@H](N)C(=O)O [Isoleucine, L-isoleucine] | 10 to 30 | – | support (improve) bacterial biofilm growth | – |
| NCCCC[C@H](N)C(=O)O [Lysine, L-lysine] | – | – | support (improve) bacterial biofilm growth | activation at 1 % [1]: 10 to 30%; activation at 1 % [2]: 10 to 30% |
| CSCC[C@H](N)C(=O)O [Methionine, L-methionine] | – | 10 to 30 | support (improve) bacterial biofilm growth | – |
| NCCOP(=O)(O)O [Phosphoethanolamine, 0-phosphoethanolamine] | – | – | – | Reduce B Biofilm [1, 4]: ● (a single dot [ie. •] signifies minor effect (from about 10 to about 30% change)); Reduce B Biofilm [2, 5]: ● (a single dot [ie. •] signifies minor effect (from about 10 to about 30% change)); Anti-biofilm effect against bacterial biofilms (reduction) [3]: less than twofold |
| C[C@H](N)C(=O)O [Alanine, L-alanine] | 10 to 30 | – | support (improve) bacterial biofilm growth | – |
| NCCC(=O)O [Beta-Alanine, Beta-alanine] | – | – | – | Reduce B Biofilm [2, 5]: ● (a single dot [ie. •] signifies minor effect (from about 10 to about 30% change)); Anti-biofilm effect against bacterial biofilms (reduction) [3]: less than twofold |
| NC(=O)C[C@H](N)C(=O)O [Asparagine, L-asparagine] | – | 10 to 30 | support (improve) bacterial biofilm growth | – |
| N[C@@H](CCSC[C@H](N)C(=O)O)C(=O)O [Cystathionine (0.2%), L-cystathionine] | – | – | – | inhibition at 1 % [1, 4]: 10 to 30% |
